Results on one substance are retold here after publication PMC5594493, “Antiproliferative factor (APF) binds specifically to sites within the cytoskeleton-associated protein 4 (CKAP4) extracellular domain” (BMC Biochemistry, 2017).

For one assay, the system named is CKAP4_106–602. The assay is described as follows: SPR, CKAP4_106–602 as immobilized ligand. The class given is binding. Particulars: CKAP4_106–602 immobilized on NTA chip. On the procedure: All SPR experiments were performed on a Biacore X-100 instrument (GE Healthcare) with the chip surface at 25 °C using PBS containing 0.01% Tween-20 as running buffer. CKAP4 recombinant proteins were immobilized individually either by Ni^2+/nitrilotriacetic acid (NTA) chelation on Sensor Chip NTA or by amine-coupling on Sensor Chip CM5, on the Fc2 channel. For amine-coupling, the sensor surface on both flow cells was activated for 7 min with a 1:1 mixture of 0.1 M EDC (1-ethyl-3-(3-dimethylaminopropyl) carbodiimide hydrochloride) and 0.1 M NHS (N-hydroxysuccinimide) at a flow rate of 5 μl/min. Immobilization of CKAP4 proteins (on Fc2) was performed in 10 mM sodium acetate buffer, at either pH 4.5, 5.0, or 5.5 based on preliminary pH scouting runs, for optimal binding. Unreacted NHS groups were quenched with a 7 min injection of 1 M ethanolamine pH 8.5. The Fc1 channel was treated similarly but without CKAP4 and served as a reference. Upon stabilization of the baseline signal, multi-cycle kinetics assays were performed with injections of as-APF as analyte at various concentrations (2.5–40 μM) in running buffer at 30 μl/min for 2 min, immediately followed by a 3 min dissociation phase. […] The data were analyzed using Biacore Evaluation software V2.0. […]
A general note: In SPR one partner is held on a chip, and binding of the other changes the refractive index at the surface.

The target in a further assay is T1, CKAP4_127–360 (Homo sapiens, UniProt Q07065).
T1 construct: amino acids 106–602, 127–360, 361–524, and 525–602 regions were generated by PCR and subcloned into the pET-15b bacterial expression vector; His-tag; made in house; host or cells: E. coli BL21(DE3)pLysS
T1 sequence (Q07065 127-360): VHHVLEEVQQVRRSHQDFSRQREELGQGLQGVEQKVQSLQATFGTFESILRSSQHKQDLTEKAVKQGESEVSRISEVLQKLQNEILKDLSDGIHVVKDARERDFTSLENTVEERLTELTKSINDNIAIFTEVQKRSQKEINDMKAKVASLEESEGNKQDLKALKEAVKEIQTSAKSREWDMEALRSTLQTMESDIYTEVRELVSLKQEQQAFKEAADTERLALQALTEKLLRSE
Put plainly: SPR detection of as-APF in spiked urine, CKAP4_127–360 biosensor. The assay is classed as binding. Conditions: immobilized CKAP4_127–360. On the procedure:
For experiments using spiked urine, CKAP4_127–360 was immobilized on the Fc2 channel of a CM5 chip by amine-coupling, as the ligand. The Fc1 channel was similarly treated but without CKAP4, to serve as reference. A control urine sample from a healthy donor was mixed 1:1 with as-APF stock (200 μM) solution. Various dilutions of this mixture in SPR running buffer were prepared to yield desired as-APF final concentrations, and then injected over the sensor chip surface. Corresponding dilutions of unspiked control urine were run under identical conditions to account for background interference from urinary constituents. To ensure identical running conditions, all dilutions were adjusted to 1X SPR running buffer from a 10X stock. Sensorgrams were corrected for background interference from urinary constituents by subtracting the RU traces resulting from unspiked urine injections from the RU traces resulting from the corresponding urine dilutions with spiked as-APF, and subsequently replotted after subtracting the RU trace from the reference (Fc1) channel.
In order to determine whether this SPR-based assay employing CKAP4 as a biosensor could be used to detect APF in urine, we used urine from healthy donors spiked with as-APF as a mimetic for IC patient urine. CKAP4_127–360 was employed as the biosensing ligand, since it bound as-APF with the highest affinity. […]

The test system of the next assay is CKAP4. Conditions: ref [17], [18]; cited from earlier work. From the text:
(§1) The effects that APF has on cells are remarkable and unique among the reported ligands for CKAP4.

Another assay concerns HeLa cells. Particulars: in vitro; background statement, no reference given; read-out: IC50, growth inhibition; cited from earlier work.
From the text: as §1

The subject of a further assay is bladder carcinoma cells. Conditions: in vitro; background statement, no reference given; read-out: IC50, growth inhibition; cited from earlier work.
From the text: as §1

For assay [1], the system named is normal bladder epithelial cells. Conditions: in vitro; background statement, no reference given; read-out: IC50, growth inhibition; cited from earlier work.
From the text: as §1

“Also recorded” adds a separate entry of the source.

“Neu5Acα2 − 3Galβ1 − 3GalNAcα-O-TVPAAVVVA [APF]”: in the assay with CKAP4_106–602, the binding entry is reported as “did not bind robustly; also recorded: did not generate sufficient binding”. Also, the “detection in normal urine” value on CKAP4_127–360 is “in a dose-dependent manner”. For the same substance, in the assay with CKAP4, the “effect on CKAP4 localization” value was “internalization, nuclear translocation”. Further, the 50% inhibitory concentration (IC50) (in the assay with HeLa cells; with bladder carcinoma cells; in assay [1]) was around 1 nM in each case.
